Laboratory results reported in patent US12297246B2, “Interleukin-15 activity antagonist peptide” (CENTRO DE INGENIERÍA GENÉTICA Y BIOTECNOLOGÍA, priority 2017, dated 2025).
“Also recorded” adds a separate entry of the source. Where a SMILES comes first, the peptide text is derived from it. Bridges are numbered along the chain shown (N, C = ends). Roman numbers before positions name the chains, in order. Where no end group is shown, it is not given here. [ ]: non-standard residue; d: D form.

Key:
IL-15/IL-15Rα complex = biological target: T1, IL-15/IL-15Rα complex (Homo sapiens, UniProt Q13261); assay: Inhibition of IL-15/IL-15Rα complex formation (ELISA-type test); format: binding
T1 construct: all evaluated peptides recognized IL-15Rα immobilized on the ELISA plate
T1 sequence (Q13261 31-205 limits assumed, one chain of several): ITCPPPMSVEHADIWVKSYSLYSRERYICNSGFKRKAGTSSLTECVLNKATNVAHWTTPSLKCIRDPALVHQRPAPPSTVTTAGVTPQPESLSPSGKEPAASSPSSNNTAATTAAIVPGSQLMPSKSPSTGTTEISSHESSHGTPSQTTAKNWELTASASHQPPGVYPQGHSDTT
Protocol: Once the synthetic peptides were obtained and characterized, their binding capacity to IL-15Rα was determined. This evaluation was carried out by means of an ELISA type test. In addition, the % inhibition of the formation of the IL-15/IL-15Rα complex presented by each peptide was calculated. Both the procedure for the ELISA-type test and the equation used to calculate the % inhibition of the formation of the IL-15/IL-15Rα complex are detailed in the article published by Santos et al in 2012 (Santos A. et al. J. Pept. Sci. 2012; 18: 25-29).

CTLL-2 cells = assay: IL-15-induced CTLL-2 cell proliferation assay; format: cell-based; settings: for IC50: fixed IL-15 concentration of 300 μg/mL, colorimetric assay
Text: The proliferation of the CTLL-2 cell line is dependent on IL-15. Molecular entities that bind to IL-15 or its receptor subunit inhibit the proliferation of this cell line. To evaluate the antagonist capacity of peptides designed and obtained in the present invention, was followed the procedure described by Santos et al in 2012. Peptide 1 was included in all assays.
The realization of this colorimetric assay allowed calculating the IC50 value of each peptide, for a fixed IL-15 concentration of 300 μg/mL.

[1] = Solubility of the peptides

Compound	% inhibition of IL-15/IL-15Rα complex formation (IL-15/IL-15Rα complex)	IC50 (CTLL-2 cells)	solubility [1]	antagonist effect compared with Peptide 1 (CTLL-2 cells; IL-15-induced CTLL-2 proliferation)
CSCC[C@H](NC(=O)[C@@H](C)NC(=O)[C@@H](NC(=O)[C@@H](NC(=O)[C@H](N)CCCCN)C(C)C)[C@@H](C)O)C(=O)N[C@@H](CCCCN)C(=O)N[C@@H](CSSC[C@H](NC(=O)[C@H](CCCCN)NC(=O)[C@H](CCSC)NC(=O)[C@@H](C)NC(=O)[C@@H](NC(=O)[C@@H](NC(=O)[C@H](N)CCCCN)C(C)C)[C@@H](C)O)C(=O)N[C@@H](Cc1ccccc1)C(=O)N[C@@H](CC(C)C)C(=O)N[C@@H](CC(C)C)C(N)=O)C(=O)N[C@@H](Cc1ccccc1)C(=O)N[C@@H](CC(C)C)C(=O)N[C@@H](CC(C)C)C(N)=O [Peptide 14] (I: H-[dK]VT[dA]MKCFLL-NH2 / II: H-[dK]VT[dA]MKCFLL-NH2; disulfide I:7-II:7)	92%	12 µM	completely soluble	–
CSCC[C@H](NC(=O)[C@@H](C)NC(=O)[C@@H](NC(=O)[C@@H](NC(=O)[C@H](N)CCCCN)C(C)C)[C@@H](C)O)C(=O)N[C@@H](CCCCN)C(=O)N[C@@H](CS)C(=O)N[C@@H](Cc1ccccc1)C(=O)N[C@@H](CC(C)C)C(=O)N[C@@H](CC(C)C)C(N)=O [Peptide 13] (H-[dK]VT[dA]MKCFLL-NH2)	89%	29 µM	completely soluble	–
KVTAMKCFLL-NH2 [Peptide 1, reference compound]	–	130 µM	–	–
CSCC[C@H](NC(=O)[C@H](C)NC(=O)[C@@H](NC(=O)[C@@H](NC(=O)[C@@H](N)CCCCN)C(C)C)[C@@H](C)O)C(=O)N[C@H](CCCCN)C(=O)N[C@@H](CS)C(=O)N[C@@H](Cc1ccccc1)C(=O)N[C@@H](CC(C)C)C(=O)N[C@@H](CC(C)C)C(N)=O [Peptide 7] (H-KVTAM[dK]CFLL-NH2)	–	168 µM	–	–
CSCC[C@H](NC(=O)[C@H](C)NC(=O)[C@@H](NC(=O)[C@@H](NC(=O)[C@@H](N)CCCCN)C(C)C)[C@@H](C)O)C(=O)N[C@@H](CCCCN)C(=O)N[C@@H](CS)C(=O)N[C@H](Cc1ccccc1)C(=O)N[C@@H](CC(C)C)C(=O)N[C@@H](CC(C)C)C(N)=O [Peptide 9] (H-KVTAMKC[dF]LL-NH2)	–	118 µM	–	–
CSCC[C@H](NC(=O)[C@@H](C)NC(=O)[C@@H](NC(=O)[C@@H](NC(=O)[C@@H](N)CCCCN)C(C)C)[C@@H](C)O)C(=O)N[C@@H](CCCCN)C(=O)N[C@@H](CSSC[C@H](NC(=O)[C@H](CCCCN)NC(=O)[C@H](CCSC)NC(=O)[C@@H](C)NC(=O)[C@@H](NC(=O)[C@@H](NC(=O)[C@@H](N)CCCCN)C(C)C)[C@@H](C)O)C(=O)N[C@@H](Cc1ccccc1)C(=O)N[C@@H](CC(C)C)C(=O)N[C@@H](CC(C)C)C(N)=O)C(=O)N[C@@H](Cc1ccccc1)C(=O)N[C@@H](CC(C)C)C(=O)N[C@@H](CC(C)C)C(N)=O [Peptide 12] (I: H-KVT[dA]MKCFLL-NH2 / II: H-KVT[dA]MKCFLL-NH2; disulfide I:7-II:7)	96%	8 µM	completely soluble	–
CSCC[C@H](NC(=O)[C@H](C)NC(=O)[C@@H](NC(=O)[C@@H](NC(=O)[C@@H](N)CCCCN)C(C)C)[C@@H](C)O)C(=O)N[C@@H](CCCCN)C(=O)N[C@@H](CS)C(=O)N[C@@H](Cc1ccccc1)C(=O)N[C@@H](CC(C)C)C(=O)N[C@H](CC(C)C)C(N)=O [Peptide 11] (H-KVTAMKCFL[dL]-NH2)	–	133 µM	–	–
CSCC[C@H](NC(=O)[C@H](C)NC(=O)[C@@H](NC(=O)[C@H](NC(=O)[C@@H](N)CCCCN)C(C)C)[C@@H](C)O)C(=O)N[C@@H](CCCCN)C(=O)N[C@@H](CS)C(=O)N[C@@H](Cc1ccccc1)C(=O)N[C@@H](CC(C)C)C(=O)N[C@@H](CC(C)C)C(N)=O [Peptide 3] (H-K[dV]TAMKCFLL-NH2)	–	142 µM	–	–
CSCC[C@H](NC(=O)[C@@H](C)NC(=O)[C@@H](NC(=O)[C@@H](NC(=O)[C@@H](N)CCCCN)C(C)C)[C@@H](C)O)C(=O)N[C@@H](CCCCN)C(=O)N[C@H](CS)C(=O)N[C@@H](Cc1ccccc1)C(=O)N[C@@H](CC(C)C)C(=O)N[C@@H](CC(C)C)C(N)=O [Peptide 15] (H-KVT[dA]MK[dC]FLL-NH2; N-terminus assumed)	–	296 µM	–	equal or less antagonist effect than the original peptide; also recorded: less active than Peptide 1
CSCC[C@H](NC(=O)[C@H](C)NC(=O)[C@@H](NC(=O)[C@@H](NC(=O)[C@@H](N)CCCCN)C(C)C)[C@@H](C)O)C(=O)N[C@@H](CCCCN)C(=O)N[C@@H](CS)C(=O)N[C@@H](Cc1ccccc1)C(=O)N[C@H](CC(C)C)C(=O)N[C@@H](CC(C)C)C(N)=O [Peptide 10] (H-KVTAMKCF[dL]L-NH2)	–	134 µM	–	–
CSCC[C@H](NC(=O)[C@H](C)NC(=O)[C@@H](NC(=O)[C@@H](NC(=O)[C@H](N)CCCCN)C(C)C)[C@@H](C)O)C(=O)N[C@@H](CCCCN)C(=O)N[C@@H](CS)C(=O)N[C@@H](Cc1ccccc1)C(=O)N[C@@H](CC(C)C)C(=O)N[C@@H](CC(C)C)C(N)=O [Peptide 2] (H-[dK]VTAMKCFLL-NH2)	–	100 µM	–	–
CSCC[C@H](NC(=O)[C@H](C)NC(=O)[C@H](NC(=O)[C@@H](NC(=O)[C@@H](N)CCCCN)C(C)C)[C@H](C)O)C(=O)N[C@@H](CCCCN)C(=O)N[C@@H](CS)C(=O)N[C@@H](Cc1ccccc1)C(=O)N[C@@H](CC(C)C)C(=O)N[C@@H](CC(C)C)C(N)=O [Peptide 4] (H-KV[dT]AMKCFLL-NH2)	–	159 µM	–	–
CSCC[C@@H](NC(=O)[C@H](C)NC(=O)[C@@H](NC(=O)[C@@H](NC(=O)[C@@H](N)CCCCN)C(C)C)[C@@H](C)O)C(=O)N[C@@H](CCCCN)C(=O)N[C@@H](CS)C(=O)N[C@@H](Cc1ccccc1)C(=O)N[C@@H](CC(C)C)C(=O)N[C@@H](CC(C)C)C(N)=O [Peptide 6] (H-KVTA[dM]KCFLL-NH2)	–	292 µM	–	–
CSCC[C@H](NC(=O)[C@H](C)NC(=O)[C@@H](NC(=O)[C@@H](NC(=O)[C@@H](N)CCCCN)C(C)C)[C@@H](C)O)C(=O)N[C@@H](CCCCN)C(=O)N[C@H](CS)C(=O)N[C@@H](Cc1ccccc1)C(=O)N[C@@H](CC(C)C)C(=O)N[C@@H](CC(C)C)C(N)=O [Peptide 8] (H-KVTAMK[dC]FLL-NH2)	–	103 µM	–	–
CSCC[C@H](NC(=O)[C@@H](C)NC(=O)[C@@H](NC(=O)[C@@H](NC(=O)[C@@H](N)CCCCN)C(C)C)[C@@H](C)O)C(=O)N[C@@H](CCCCN)C(=O)N[C@@H](CS)C(=O)N[C@@H](Cc1ccccc1)C(=O)N[C@@H](CC(C)C)C(=O)N[C@@H](CC(C)C)C(N)=O [Peptide 5] (H-KVT[dA]MKCFLL-NH2)	92%	28 µM	completely soluble	–
